Usually IC50 stands for the concentration at which inhibition is half-maximal. A low value points to greater potency in that assay. By inhibition is commonly meant the share of the control response that was lost under treatment. Low readings indicate a weak effect, high ones a strong effect.

The text below walks through data of paper PMC12087874, “Biaryl Phosphates and Phosphonates as Selective Inhibitors of the Transcription Factor STAT4” (Angewandte Chemie (International Ed. in English), 2025).

“Also recorded” adds a separate entry of the source. Square brackets hold non-standard residues; d marks the D form. Peptide text beside a SMILES is read from it. pY = N[C@@H](Cc1ccc(OP(=O)(O)O)cc1)C(=O)O

Test [1] has as its target T1, STAT4 (Homo sapiens, UniProt Q14765).
T1 sequence (Q14765 1-748): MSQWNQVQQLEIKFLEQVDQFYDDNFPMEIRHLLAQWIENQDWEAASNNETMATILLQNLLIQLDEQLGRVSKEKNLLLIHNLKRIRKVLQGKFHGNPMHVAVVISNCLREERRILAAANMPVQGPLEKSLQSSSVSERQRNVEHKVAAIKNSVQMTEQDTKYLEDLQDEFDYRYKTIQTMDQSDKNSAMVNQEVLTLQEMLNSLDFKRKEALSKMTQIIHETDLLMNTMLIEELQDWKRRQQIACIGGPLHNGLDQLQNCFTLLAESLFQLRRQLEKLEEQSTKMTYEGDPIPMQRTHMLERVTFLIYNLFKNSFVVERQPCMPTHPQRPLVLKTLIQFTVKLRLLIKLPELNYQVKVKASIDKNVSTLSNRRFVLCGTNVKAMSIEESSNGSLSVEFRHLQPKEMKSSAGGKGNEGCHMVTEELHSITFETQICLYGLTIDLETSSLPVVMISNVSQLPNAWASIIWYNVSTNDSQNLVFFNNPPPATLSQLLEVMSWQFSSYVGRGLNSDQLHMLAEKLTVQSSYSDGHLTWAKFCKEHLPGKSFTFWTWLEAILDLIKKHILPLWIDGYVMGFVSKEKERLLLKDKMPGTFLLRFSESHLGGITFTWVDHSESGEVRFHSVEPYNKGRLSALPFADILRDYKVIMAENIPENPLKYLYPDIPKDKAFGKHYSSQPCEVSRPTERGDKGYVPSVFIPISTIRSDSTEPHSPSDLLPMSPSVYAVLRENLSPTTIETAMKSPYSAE
The experiment in a line: Competitive fluorescence polarization (FP) assay, STAT4 SH2 domain. It is filed as binding. As to conditions: FP assay; for Ki: tracer 5-carboxyfluorescein-GpYLPQNID-OH, Ki derived from IC50, read-out: STAT4 K i; for Ki / IC50: mean ± SD, n = 3. As to the method: (§1) Fluorescence polarization assays
(§2) Competitive fluorescence polarization assays, which measure the abilities of test compounds (dissolved in DMSO) to displace a fluorescent-labeled peptide from the SH2 domain of a STAT protein, were carried out essentially as described. Proteins were used at the following final concentrations: 23 nM or 28 nM for STAT4; between 56 nM and 91 nM for STAT1; 107 nM or 110 nM for STAT3; between 131 nM and 177 nM for STAT5a; between 62 nM and 85 nM for STAT5b; and 101 nM or 106 nM for STAT6. These concentrations represent the approximate […]
(§3) dissociation constant for peptide binding of the respective protein batches used in the assays.
(§4) The following peptides were used: 5-carboxyfluorescein-GpYLPQNID-OH for STAT4; 5-carboxyfluorescein-GpYDKPHVL for STAT1; 5-carboxyfluorescein-GpYLPQTV-NH2 for STAT3; 5-carboxyfluorescein-GpYLVLDKW for STAT5a/b, and 5-carboxyfluorescein- […]
(§5) Gp[…]-OH for STAT6. All peptides were used at a final concentration of 10 nM. The buffer consisted of 10 mM Tris (pH 8.0), 50 mM NaCl, 1 mM EDTA, 1 mM DTT, 0 .1 % Nonidet P-40 substitute, and 2 % DMSO. After incubation of protein and test compound for 1 h at room temperature, the fluorescent -labeled peptide was added. Samples were transferred to 384 - well microtiter plates and fluorescence polarization was read after an additional 60 min of incubation time. Measurements were performed in triplicate. Percent binding was calculated based on a logarithmic curve fit using OriginPro 8G software. IC 50 values were converted to Ki-values via the published equation[3] using the corresponding Excel spread sheet […]
(§6) https://websites.umich.edu/~shaomengwanglab/software/calc_ki/index.html .
(§7) Error bars represent standard deviations. Ligand efficiencies (LE) were calculated by the formula LE = -1,37 x log Ki / number of non-hydrogen atoms.[4] […]
(In fluorescence polarisation assays a small probe gives low polarisation when free and higher when bound to something large.)

In a further test the target is T2, STAT1 (Homo sapiens, UniProt P42224).
T2 sequence (P42224 1-750): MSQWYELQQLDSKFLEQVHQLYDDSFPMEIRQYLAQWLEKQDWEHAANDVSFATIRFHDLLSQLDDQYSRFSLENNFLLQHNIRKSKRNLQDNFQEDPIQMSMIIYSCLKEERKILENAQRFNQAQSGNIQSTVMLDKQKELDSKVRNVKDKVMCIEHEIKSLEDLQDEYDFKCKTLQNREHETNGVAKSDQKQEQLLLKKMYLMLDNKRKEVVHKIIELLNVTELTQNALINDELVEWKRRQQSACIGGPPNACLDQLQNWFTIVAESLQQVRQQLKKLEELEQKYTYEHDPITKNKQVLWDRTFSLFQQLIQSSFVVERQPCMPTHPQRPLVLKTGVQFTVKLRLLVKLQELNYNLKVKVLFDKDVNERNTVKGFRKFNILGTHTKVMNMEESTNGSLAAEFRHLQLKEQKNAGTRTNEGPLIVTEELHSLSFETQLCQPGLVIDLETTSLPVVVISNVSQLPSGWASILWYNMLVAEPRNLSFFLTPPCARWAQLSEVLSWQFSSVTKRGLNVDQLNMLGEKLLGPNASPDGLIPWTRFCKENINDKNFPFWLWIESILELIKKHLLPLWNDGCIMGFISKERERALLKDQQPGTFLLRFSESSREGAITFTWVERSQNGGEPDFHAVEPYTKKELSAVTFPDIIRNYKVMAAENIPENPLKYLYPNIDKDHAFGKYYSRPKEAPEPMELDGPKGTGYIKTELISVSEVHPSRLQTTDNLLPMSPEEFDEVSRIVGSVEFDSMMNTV
The experiment in a line: Competitive fluorescence polarization (FP) assay, STAT1 SH2 domain. As to conditions: tracer 5-carboxyfluorescein-GpYDKPHVL, Ki derived from IC50. It is filed as binding. As to the method:
as §1, §2, §3, §4, §5, §6, §7

The target in another test is STAT3 (Homo sapiens, UniProt P40763). The experiment in a line: Competitive fluorescence polarization (FP) assay, STAT3 SH2 domain. It is filed as binding. As to conditions: tracer 5-carboxyfluorescein-GpYLPQTV-NH2, Ki derived from IC50. As to the method: as §1, §2, §3, §4, §5, §6, §7
STAT3, sequence (P40763 whole entry, species assumed, the tested form may be a part): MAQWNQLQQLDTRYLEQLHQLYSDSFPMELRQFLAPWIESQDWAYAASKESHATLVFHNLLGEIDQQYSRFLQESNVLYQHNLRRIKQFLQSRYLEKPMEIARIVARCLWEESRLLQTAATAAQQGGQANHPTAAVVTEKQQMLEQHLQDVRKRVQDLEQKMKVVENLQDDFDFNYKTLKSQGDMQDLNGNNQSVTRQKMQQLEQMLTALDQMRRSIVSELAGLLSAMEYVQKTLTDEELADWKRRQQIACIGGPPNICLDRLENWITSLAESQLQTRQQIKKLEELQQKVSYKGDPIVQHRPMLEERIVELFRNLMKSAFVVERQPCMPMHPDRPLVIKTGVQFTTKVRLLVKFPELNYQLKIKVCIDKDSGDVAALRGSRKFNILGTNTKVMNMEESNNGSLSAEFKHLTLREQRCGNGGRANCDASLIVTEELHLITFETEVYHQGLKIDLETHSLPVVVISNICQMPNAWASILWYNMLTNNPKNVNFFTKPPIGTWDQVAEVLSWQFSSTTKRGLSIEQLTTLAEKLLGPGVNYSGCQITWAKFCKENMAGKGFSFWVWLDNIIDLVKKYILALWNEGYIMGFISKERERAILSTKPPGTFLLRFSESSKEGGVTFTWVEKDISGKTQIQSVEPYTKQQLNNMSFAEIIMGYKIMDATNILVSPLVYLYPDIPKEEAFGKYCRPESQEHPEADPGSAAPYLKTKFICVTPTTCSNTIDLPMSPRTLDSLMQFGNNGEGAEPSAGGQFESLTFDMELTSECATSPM
The target of test [2] is T1, STAT4. As to the kind of experiment: IL-12-induced STAT4 Tyr693 phosphorylation in NK-92 cells (Western blot). It is filed as cell-based. Also on record: utilizing cellular lysates from the STAT4‐expressing natural killer cell line NK‐92; endogenous in cells; host or cells: NK-92 (DSMZ). As to the method: NK-92 cells (DSMZ) were cultured in α-MEM containing 12.5% fetal bovine serum (FBS), 12.5% horse serum, 2 mM L-glutamine, penicillin/streptomycin and 50 U/ml IL -2. […]
The components of cell lysates from treated cells, or heat-treated lysates from CETSA, were separated by SDS-PAGE (10%), transferred to nitrocellulose membrane (Bio-Rad) and detected using monoclonal rabbit primary antibodies (Cell Signaling), α-rabbit-HRP secondary antibody (Dako) and Western Lightning Plus chemiluminescence reagent (Perkin Elmer).
Bands were visualized using an ImageQuant system (GE Healthcare) and quantitated using ImageJ software (NIH). […]
The sitting drop was composed of 0.1 µl protein solution and 0.1 µl reservoir solution. Plates were stored at 19°C in a protein […]
In the first set of experiments, w e tried to crystallize STAT4 as a SUMO -STAT4 fusion protein […]
was cleaved off as described above.
Screening for crystallization conditions for tag-free STAT4 was performed both in the absence or presence of 1 equivalent of 6m or 6h. Since the chosen protein concentration of 3.6 mg/ml appeared to be too low, screening was repeated with a higher concentration of 6.4 mg/ml STAT4 for all conditions (corresponding to 100 µM 6m). Both the SUMO-STAT4 and the tag-free STAT4 preferentially precipitated under conditions containing polyethylene glycol. In one set of experiments, we also screened for conditions in the presence of the high-affinity peptide GY(PO3H2)LPQNID adapted from the IL-12 receptor. However, none of the conditions resulted in the growth of STAT4 crystals (Table S4).
(In western blotting, separated proteins are transferred to a membrane and probed.)

Consider `CC[C@H](C)[C@H](NC(=O)[C@H](CC(N)=O)NC(=O)[C@H](CCC(N)=O)NC(=O)[C@@H]1CCCN1C(=O)[C@H](CC(C)C)NC(=O)[C@H](Cc1ccc(OP(=O)(O)O)cc1)NC(=O)CNC(C)=O)C(=O)N[C@@H](CC(=O)O)C(=O)O` [Ac‐GpYLPQNID, reference compound] (Ac-G[pY]LPQNID-OH), for which the values for the Ki at STAT4 [1], at STAT1 and on STAT3 were 0.22 ± 0.02 µM, 0.36 ± 0.08 µM and 0.24 ± 0.04 µM, respectively. As for `Oc1ccc(-c2ccc3ccccc3c2)cc1F` [Compound 4m], on STAT4 [1] (200 µM), the “STAT4 inhibition at 200 µM” value was “lack of activity; also recorded: no inhibition at 200 µM”. In the case of `COC(=O)c1ccccc1-c1ccc(OP(=O)(O)O)cc1` [Compound 6a], at STAT4 [1], the Ki stood at 9.1 ± 0.8 µM and the IC50 was 18 ± 2 µM. On to `O=C(O)c1ccccc1-c1ccc(OP(=O)(O)O)cc1` [Compound 6b], for which, on STAT4 [1], the Ki worked out at 7.8 ± 0.5 µM and the half-inhibitory concentration (IC50) is 17 ± 1 µM. In the same order, the values of `N#Cc1ccccc1-c1ccc(OP(=O)(O)O)cc1` [Compound 6c] are 2.7 ± 0.3 µM and 5.2 ± 0.6 µM.

With `CC(=O)NCc1ccccc1-c1ccc(OP(=O)(O)O)cc1` [Compound 6d], on STAT4 [1], the Ki was determined as 6.2 ± 0.4 µM and the IC50 was 12 ± 1 µM. As for `COc1cc(OC)cc(-c2ccc(OP(=O)(O)O)cc2)c1` [Compound 6e], at STAT4 [1], the Ki came to 1.9 ± 0.1 µM and the IC50 turned out to be 3.9 ± 0.2 µM.

As for `O=P(O)(O)Oc1ccc(-c2cccc3ccccc23)cc1` [Compound 6f], on STAT4 [1], the Ki turned out to be 0.84 ± 0.08 µM and the IC50 was found to be 1.8 ± 0.2 µM. As to `O=P(O)(O)Oc1ccc(-c2ccccc2)c(F)c1` [Compound 6i], on STAT4 [1], the Ki amounted to 3.8 ± 0.1 µM and the IC50 is 8.1 ± 0.1 µM. For `O=P(O)(O)Oc1c(F)cc(-c2ccccc2)cc1F` [Compound 6j], on STAT4 [1], the Ki is 2 ± 0.1 µM and the IC50 turned out to be 4.3 ± 0.3 µM. In the case of `O=P(O)(O)Oc1ccc(-c2ccccc2)cc1Cl` [Compound 6k], at STAT4 [1], the Ki stood at 3.3 ± 1 µM and the half-inhibitory concentration (IC50) was 7 ± 2 µM. As to `COc1cc(-c2ccccc2)ccc1OP(=O)(O)O` [Compound 6l], at STAT4 [1], the Ki came out at 22 ± 2 µM and the IC50 was 47 ± 5 µM. Consider `O=P(O)(O)Cc1ccc(-c2ccc3ccccc3c2)cc1F` [Compound 7], for which testing at 100 µM on STAT4 [1] (100 µM, the highest concentration tested) gave an inhibition of 33 ± 4%. On to `O=P(O)(O)C(F)(F)c1ccc(-c2ccoc2)cc1F` [Compound 8b], for which, on STAT4 [1], the Ki is 39 ± 1 µM and the IC50 was found to be 83 ± 2 µM.

`Cn1cc(-c2ccc(C(F)(F)P(=O)(O)O)c(F)c2)cn1` [Compound 8c]: at STAT4 [1], the Ki turned out to be 8 ± 0.7 µM and the IC50 was 15 ± 1 µM. For `O=P(O)(O)C(F)(F)c1ccc(-c2cccs2)cc1F` [Compound 8d], on STAT4 [1], the Ki was 3.6 ± 0.2 µM and the IC50 worked out at 7.7 ± 0.4 µM.

Regarding `O=P(O)(O)C(F)(F)c1ccc(-c2ccsc2)cc1F` [Compound 8e], at STAT4 [1], the Ki came out at 2.8 ± 0.3 µM and the IC50 turned out to be 6 ± 0.6 µM.

Take `COC(=O)c1cc(-c2ccc(C(F)(F)P(=O)(O)O)c(F)c2)cs1` [Compound 8f]: at STAT4 [1], the Ki was determined as 4.4 ± 0.1 µM and the 50% inhibitory concentration (IC50) worked out at 9.4 ± 0.2 µM.

Take `NC(=O)c1cc(-c2ccc(C(F)(F)P(=O)(O)O)c(F)c2)cs1` [Compound 8g]: on STAT4 [1], the Ki was 11 ± 2 µM and the IC50 is 24 ± 4 µM. With `CC(=O)c1cc(-c2ccc(C(F)(F)P(=O)(O)O)c(F)c2)cs1` [Compound 8h], at STAT4 [1], the Ki amounted to 7.1 ± 0.6 µM and the IC50 amounted to 15 ± 1 µM.

On to `O=P(O)(O)C(F)(F)c1ccc(-c2csc(Cl)c2)cc1F` [Compound 8i], for which, at STAT4 [1], the Ki amounted to 5.5 ± 0.7 µM and the IC50 is 12 ± 2 µM. With `O=P(O)(O)C(F)(F)c1ccc(-c2ccsc2Cl)cc1F` [Compound 8j], on STAT4 [1], the Ki was determined as 7.3 ± 0.6 µM and the IC50 was found to be 15 ± 1 µM.

Consider `Cc1sccc1-c1ccc(C(F)(F)P(=O)(O)O)c(F)c1` [Compound 8l], for which, at STAT4 [1], the Ki turned out to be 8.7 ± 0.9 µM and the half-maximal inhibitory concentration (IC50) was 18 ± 2 µM. In the same order, the values of `Cc1cscc1-c1ccc(C(F)(F)P(=O)(O)O)c(F)c1` [Compound 8m] are 8.9 ± 0.7 µM and 19 ± 1 µM. Regarding `CC(C)(C)C(=O)OCOP(=O)(Cc1ccc(-c2ccc3ccccc3c2)cc1F)OCOC(=O)C(C)(C)C` [Compound 10], the “inhibition of IL‐12‐induced STAT4 Tyr693 phosphorylation” value on STAT4 [2] (2 h, presence of 25% serum) is “inactive; also recorded: does not”; against STAT4 [2] (absence of serum), “still inactive”.
